{"source": "paper PMC11476552", "about": "“Synthesis and Preliminary Studies for In Vitro Biological Activity of Two New Water-Soluble Bis(thio)carbohydrazones and Their Copper(II) and Zinc(II) Complexes” (International Journal of Molecular Sciences, 2024)", "test_system": "Hs27 cells", "assay": "Antiproliferative activity, trypan blue cell count, Hs27", "type": "cell-based", "details": "Hs27, up to 100 µg/mL, 24-72 h", "experimental": "We have started to investigate the antiproliferative profile of the ligands and of the complexes C1–C4 using a normal fibroblast cell line (Hs27) and a leukaemia cell line (U937), an in vitro cell model system systematically used to validate the toxicological profile of new potential anticancer agents. For the cytotoxicity assay, we treated Hs27 and U937 cells with five different concentrations of compound, ranging from 12.5 to 100 µg/mL, for 24, 48, and 72 h.\nU937 cells (ATCC, CRL-1593.2) were obtained from the American Tissue Culture Collection (Rockville, MD, USA) and were cultured in Roswell Park Memorial Institute Medium (RPMI-1640) (Euroclone, Italy); Hs27 cells (ATCC, CRL1634) were grown in DMEM. Both media were supplemented with 10% (v/v) foetal bovine serum (Euroclone, Italy), 1% L-glutamine (2 mM) (Euroclone, Italy), and 1% penicillin (100 U/mL)/streptomycin (100 µg/mL) (Euroclone, Italy), added with 10% (v/v) foetal bovine serum (Euroclone, Italy), 1% L-glutamine (2 mM) (Euroclone, Italy), and 1% penicillin (100 U/mL)/streptomycin (100 µg/mL) (Euroclone, Italy). Flasks were maintained at 37 °C and 5% CO2 in a humidified atmosphere. […]\nThe antiproliferative activity of the ligands and the complexes C1–C4 was evaluated in vitro on U937 and Hs27 cell lines. […] Values are reported as the mean of the GI50 calculated on two independent experiments.", "data": [{"smiles": "COc1cc(S(=O)(=O)[O-])cc(/C=N/NC(=O)N/N=C/c2cc(S(=O)(=O)[O-])cc(OC)c2O)c1O.[Na+].[Na+]", "note": "[bis-CH, Bis-(sodium 3-methoxy-5-sulfonate-salicylaldehyde)-carbohydrazone]", "values": [{"measurement": "cytotoxic effect (in words)", "value": "did not produce a reduction in cell viability"}]}]}
